Test system: NV-VLP
Conditions: 0-5 μg NV-VLP adsorbed on 96-well plate; 5×10^10 pfu of phage; HRP-conjugated M13 phage antibody
Experimental: NV-VLP (5, 2.5, 1.25, 0.63 μg) or 5 μg of unrelated protein BSA was immobilized and binding of each phage, indicated on the X-axis, was detected by M13 phage antibody. OD450 signal is indicated on the Y-axis.
Enzyme-linked immunosorbent assay (ELISA)—Initial ELISA experiments were performed by directly coating 0-5 μg of NV-VLP in 96-well polystyrene plates overnight. Wells were blocked with 2% milk in PBS for 2 hours at room temperature. After washing 3 times with PBS, 1×10^11 phage in 1% milk-PBS were added and incubated at room temperature with gentle rocking for 2 hours. Plates were washed 10 times with PBS-T. HRP-conjugated M13-antibody (Pharmacia Biotech) was diluted 1:5000 in 1% milk PBS and 100 μl was added to each well and incubated at room temperature for 45 minutes. After washing with PBS-T, HRP substrate, 3,3′,5′-tetramethylbenzidine (TMB)(KPL) was added to each well. Development was allowed to proceed for 10-20 minutes and stopped with 1M H3PO4 (KPL). Optical density was measured at 450 nm on a Tecan infinite M200pro plate reader.
The binding of each phage clone to immobilized NV-VLP was tested by phage ELISA. For these experiments, 0-5 μg of NV-VLP or bovine serum albumin (BSA), as a negative control, was adsorbed onto a 96-well plate and 5×10^10 pfu of phage were added to each well and binding was detected with an HRP-conjugated M13 phage antibody (FIG. 1).

NV-VLP, sequence (Q83884 whole entry): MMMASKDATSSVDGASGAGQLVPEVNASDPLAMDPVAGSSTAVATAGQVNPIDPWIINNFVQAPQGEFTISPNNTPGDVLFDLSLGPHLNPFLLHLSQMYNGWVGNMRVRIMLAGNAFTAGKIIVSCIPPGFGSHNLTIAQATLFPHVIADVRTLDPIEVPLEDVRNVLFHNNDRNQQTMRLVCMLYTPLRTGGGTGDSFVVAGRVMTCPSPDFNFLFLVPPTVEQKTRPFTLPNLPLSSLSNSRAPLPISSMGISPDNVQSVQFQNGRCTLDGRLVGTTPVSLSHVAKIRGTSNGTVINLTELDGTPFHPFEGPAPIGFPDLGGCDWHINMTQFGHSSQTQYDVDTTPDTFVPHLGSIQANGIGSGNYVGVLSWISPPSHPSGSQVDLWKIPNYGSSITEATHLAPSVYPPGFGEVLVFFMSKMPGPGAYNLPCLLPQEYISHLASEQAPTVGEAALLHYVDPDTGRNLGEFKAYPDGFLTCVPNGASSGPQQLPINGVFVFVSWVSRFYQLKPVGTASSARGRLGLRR

## IQYRSWIPFSYP [NV-O-R5-6]
  Binding to immobilized NV-VLP (ELISA signal, OD450): weakest signals
